Structures are written as SMILES.

A short description of series [1]: Phase I clinical trial (Example 1): pharmacokinetics of both drugs for the 2 sequences. It counts as in vivo, human. To be noted: for influence of order of administration on pharmacokinetics: ET-743 and Doxo, sequence A versus B; for comparison of the plasma disposition in patients receiving both sequences: ET-743 and doxorubicin, sequences A and B, cycle 1 and cycle 2. Here is the method:
Pharmacokinetic [PK] of both drugs was determined for the 2 sequences at cycle 1 and cycle 2, when patients received the drugs in the reverse order of administration. Alternating sequence was discontinued at observation of dose limiting toxicity [DLT]: observation of grade 4 hematological toxicity for more than 3 days at the entry level. Both drugs were administered on day 1, with a 1 h interval between the 2 drugs (ET-743, 3-hr infusion i.v. and Doxo, 1-hr infusion i.v push with steroids & 5-HT3 antagonists as antiemetic prophylaxis). Oral steroids premedication for ET-743 was given 24 h before and for 48 h following the day of treatment. Doxo was administered at the fixed dose of 60 mg/m^2, while ET-743 was started at 600 μg/m^2 and escalated thereafter in subsequent cohorts of at least 3 new cases. Patients continued treatment until progressive disease (PD) or intolerance, and were restaged every 2 cycles for activity.

For series [2] the following is noted: ET-743 with doxorubicin; tests on animal models; WO 0236135; cited from earlier work.
Series [3] has as its system untreated metastatic soft tissue sarcomas (STS) and advanced pre-treated anthracyline-naïve breast cancer (ABC). The series is described as follows: Phase I clinical trial (Example 1): antitumor activity of ET-743 in combination with doxorubicin. Format: in vivo, human. Here is the method: In this multicenter dose and LTS finding trial, patients were assigned consecutively to start either with sequence A (ET-743 before Doxo) or with the reverse sequence (B) at the following dose levels every 21 days: […] Oral steroids premedication for ET-743 was given 24 h before and for 48 h following the day of treatment. […] Patients continued treatment until progressive disease (PD) or intolerance, and were […] 2 cycles for activity. In this study, 22 patients were enrolled and evaluable. The patients were required to have normal liver, renal, cardiac and haematologic functions and good performance status for entry into the study. Enrolment was restricted to breast cancer and soft tissue sarcoma.

A further series relates to sarcoma cell line. To be noted: ET-743 and doxorubicin, Meco et al. 2003; cited from earlier work.
Series [4] has as its system transplanted human sarcomas. To be noted: ET-743 and doxorubicin; mice with transplanted human sarcomas; Meco et al. 2003; cited from earlier work.
Series [5] concerns sarcoma and breast and ovarian carcinoma. To be noted: ET-743 alone; phase I intravenous infusion schedules; cited from earlier work.
For series [6] the following is noted: human, in vivo.
Series [7] relates to human tumor xenografts, including melanoma and ovarian and breast carcinoma. To be noted: ET-743 alone; human tumor xenografts grown in athymic mice; cited from earlier work. In general terms: Xenograft models place foreign cells or tissue in a host animal.
Series [8] is described as follows: Phase I clinical trial (Example 2): safety profile and DLT of ET-743 days 1 and 8 with doxorubicin day 1. The note with it: fixed Doxo dose day 1 with ET-743 700 μg/m^2 days 1 and 8, every 21 days.

On to `COc1cc2c(cc1O)CCN[C@]21CS[C@@H]2c3c(OC(C)=O)c(C)c4c(c3[C@H](COC1=O)N1[C@@H]2[C@H]2c3c(cc(C)c(OC)c3O)C[C@@H]([C@@H]1O)N2C)OCO4` [ET-743, ecteinascidin 743], for which the “influence of order of administration on pharmacokinetics” value in [1] is on record as “did not influence the pharmacokinetics”. Besides, the “comparison of the plasma disposition in patients receiving both sequences” value in series [1] is given as “did not reveal any significant pharmacokinetic interaction”. In addition, the “effect of the combination” value in series [2] is listed as “synergistic effect”; in the series on sarcoma cell line it was “additive effect”; in [4], “additive effect”. In addition, in series [3] (600-700 μg/m^2 of ET-743 in combination with Doxo), the antitumor activity result is given as “Antitumor activity was observed”. Moreover, the “patients with confirmed partial response (PR)” value in series [3] (all ET-743 dose levels + Doxo 60 mg/m^2, 22 evaluable patients) is listed as 5 pts. Further, the “antitumor activity of the combination” value in [3] (combination of ET-743 and doxorubicin, phase I clinical trials) is given as “evidence of antitumor activity”. In [5], the responses in patients entry is given as “Promising responses”. In addition, the “tolerability of the combination” value in series [6] was “tolerable and feasible”. The antineoplastic activity result in series [7] is given as “potent antineoplastic activity”.

As to `COc1cccc2c1C(=O)c1c(O)c3c(c(O)c1C2=O)C[C@@](O)(C(=O)CO)C[C@@H]3O[C@H]1C[C@H](N)[C@H](O)[C@H](C)O1` [doxorubicin], in [1], the “influence of order of administration on pharmacokinetics” value is recorded as “did not influence the pharmacokinetics” and the “comparison of the plasma disposition in patients receiving both sequences” value is “did not reveal any significant pharmacokinetic interaction”. In [8], the “MTD, Doxo part” value is recorded as 50 mg/m^2.

The record behind these values is patent publication US20070082856A1, “Combination therapy comprising the use of et-743 and doxorubicin for treating cancer” (Pharma Mar, S.A.U., priority 2003, published 2007).
